# Reference: PubChem BioAssay (NCI)
#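 The concentration for 50% growth inhibition is given as GI50. TGI: concentration producing complete growth inhibition.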
# Experiments:
# Assay in all cases: NCI-60 cell line screen, 384-well format
# NCI/ADR-RES ovarian = tested on: NCI/ADR-RES ovarian
# BT-549 breast = tested on: BT-549 breast
# HOP-92 NSCLC = tested on: HOP-92 NSCLC
# SF-295 CNS = tested on: SF-295 CNS
# NCI-H322M lung = tested on: NCI-H322M lung
# HL-60(TB) leukemia = tested on: HL-60(TB) leukemia
# KM12 colon = tested on: KM12 colon
# LOX IMVI melanoma = tested on: LOX IMVI melanoma
# M14 melanoma = tested on: M14 melanoma
# MDA-MB-435 melanoma = tested on: MDA-MB-435 melanoma
# A549 NSCLC = tested on: A549 NSCLC
# T-47D breast = tested on: T-47D breast
# UACC-257 melanoma = tested on: UACC-257 melanoma
# HCT-15 colon = tested on: HCT-15 colon
# MDA-MB-231 breast = tested on: MDA-MB-231 breast
# OVCAR-3 ovarian = tested on: OVCAR-3 ovarian
# MALME-3M melanoma = tested on: MALME-3M melanoma
# SR leukemia = tested on: SR leukemia
# RXF 393 renal = tested on: RXF 393 renal
# ACHN renal = tested on: ACHN renal
# SF-539 CNS = tested on: SF-539 CNS
# OVCAR-5 ovarian = tested on: OVCAR-5 ovarian
# MCF7 breast = tested on: MCF7 breast
# HCC-2998 colon = tested on: HCC-2998 colon
# TK-10 renal = tested on: TK-10 renal
# IGROV1 ovarian = tested on: IGROV1 ovarian
# DU-145 prostate = tested on: DU-145 prostate
# U251 glioblastoma = tested on: U251 glioblastoma
# PC-3 prostate = tested on: PC-3 prostate
# MDA-MB-468 breast = tested on: MDA-MB-468 breast
# SNB-19 CNS = tested on: SNB-19 CNS
# SF-268 CNS = tested on: SF-268 CNS
# HCT-116 colon = tested on: HCT-116 colon
# RPMI-8226 leukemia = tested on: RPMI-8226 leukemia
# HOP-62 NSCLC = tested on: HOP-62 NSCLC
# NCI-H460 NSCLC = tested on: NCI-H460 NSCLC
# MOLT-4 leukemia = tested on: MOLT-4 leukemia
# SN12C renal = tested on: SN12C renal
# NCI-H522 lung = tested on: NCI-H522 lung
# EKVX NSCLC = tested on: EKVX NSCLC
# OVCAR-4 ovarian = tested on: OVCAR-4 ovarian
# UACC-62 melanoma = tested on: UACC-62 melanoma
# SK-MEL-28 melanoma = tested on: SK-MEL-28 melanoma
# A498 renal = tested on: A498 renal
# NCI-H23 lung = tested on: NCI-H23 lung
# COLO 205 colon = tested on: COLO 205 colon
# SK-MEL-5 melanoma = tested on: SK-MEL-5 melanoma
# NCI-H226 lung = tested on: NCI-H226 lung
# SNB-75 CNS = tested on: SNB-75 CNS
smiles,measurement,setting,value
CCNC(=O)C[C@@H]1N=C(c2ccc(Cl)cc2)c2cc(OC)ccc2-n2c(C)nnc21,GI50,NCI/ADR-RES ovarian,11.4 µM
same,TGI,NCI/ADR-RES ovarian,36.2 µM
same,GI50,BT-549 breast,0.375 µM
same,TGI,BT-549 breast,23.3 µM
same,GI50,HOP-92 NSCLC,26.4 µM
same,TGI,HOP-92 NSCLC,> 100 µM
same,GI50,SF-295 CNS,21.6 µM
same,TGI,SF-295 CNS,> 100 µM
same,GI50,NCI-H322M lung,0.62 µM
same,TGI,NCI-H322M lung,34.6 µM
same,GI50,HL-60(TB) leukemia,0.0257 µM
same,TGI,HL-60(TB) leukemia,0.131 µM
same,GI50,KM12 colon,5.56 µM
same,TGI,KM12 colon,> 100 µM
same,GI50,LOX IMVI melanoma,0.196 µM
same,TGI,LOX IMVI melanoma,0.551 µM
same,GI50,M14 melanoma,2.35 µM
same,TGI,M14 melanoma,55.2 µM
same,GI50,MDA-MB-435 melanoma,8.67 µM
same,TGI,MDA-MB-435 melanoma,77.6 µM
same,GI50,A549 NSCLC,7.42 µM
same,TGI,A549 NSCLC,> 100 µM
same,GI50,T-47D breast,15.4 µM
same,TGI,T-47D breast,> 100 µM
same,GI50,UACC-257 melanoma,0.423 µM
same,TGI,UACC-257 melanoma,30.3 µM
same,GI50,HCT-15 colon,0.613 µM
same,TGI,HCT-15 colon,15 µM
same,GI50,MDA-MB-231 breast,5.87 µM
same,TGI,MDA-MB-231 breast,> 100 µM
same,GI50,OVCAR-3 ovarian,0.324 µM
same,TGI,OVCAR-3 ovarian,14.8 µM
same,GI50,MALME-3M melanoma,12.3 µM
same,TGI,MALME-3M melanoma,65.9 µM
same,GI50,SR leukemia,< 0.01 µM
same,TGI,SR leukemia,58 µM
same,GI50,RXF 393 renal,26 µM
same,TGI,RXF 393 renal,> 100 µM
same,GI50,ACHN renal,3.55 µM
same,TGI,ACHN renal,> 100 µM
same,GI50,SF-539 CNS,2.25 µM
same,TGI,SF-539 CNS,> 100 µM
same,GI50,OVCAR-5 ovarian,0.296 µM
same,TGI,OVCAR-5 ovarian,18.7 µM
same,GI50,MCF7 breast,< 0.01 µM
same,TGI,MCF7 breast,> 100 µM
same,GI50,HCC-2998 colon,0.0861 µM
same,TGI,HCC-2998 colon,10.8 µM
same,GI50,TK-10 renal,0.48 µM
same,TGI,TK-10 renal,28.6 µM
same,GI50,IGROV1 ovarian,0.394 µM
same,TGI,IGROV1 ovarian,16.7 µM
same,GI50,DU-145 prostate,12.8 µM
same,TGI,DU-145 prostate,> 100 µM
same,GI50,U251 glioblastoma,9.26 µM
same,TGI,U251 glioblastoma,> 100 µM
same,GI50,PC-3 prostate,0.714 µM
same,TGI,PC-3 prostate,> 100 µM
same,GI50,MDA-MB-468 breast,8.18 µM
same,TGI,MDA-MB-468 breast,> 100 µM
same,GI50,SNB-19 CNS,1.63 µM
same,TGI,SNB-19 CNS,> 100 µM
same,GI50,SF-268 CNS,22.5 µM
same,TGI,SF-268 CNS,> 100 µM
same,GI50,HCT-116 colon,4.23 µM
same,TGI,HCT-116 colon,> 100 µM
same,GI50,RPMI-8226 leukemia,0.0747 µM
same,TGI,RPMI-8226 leukemia,0.992 µM
same,GI50,HOP-62 NSCLC,0.246 µM
same,TGI,HOP-62 NSCLC,13.8 µM
same,GI50,NCI-H460 NSCLC,4.05 µM
same,TGI,NCI-H460 NSCLC,> 100 µM
same,GI50,MOLT-4 leukemia,0.599 µM
same,TGI,MOLT-4 leukemia,15.7 µM
same,GI50,SN12C renal,0.742 µM
same,TGI,SN12C renal,> 100 µM
same,GI50,NCI-H522 lung,0.213 µM
same,TGI,NCI-H522 lung,5.39 µM
same,GI50,EKVX NSCLC,25.4 µM
same,TGI,EKVX NSCLC,> 100 µM
same,GI50,OVCAR-4 ovarian,0.137 µM
same,TGI,OVCAR-4 ovarian,0.899 µM
same,GI50,UACC-62 melanoma,< 0.01 µM
same,TGI,UACC-62 melanoma,> 100 µM
same,GI50,SK-MEL-28 melanoma,14.1 µM
same,TGI,SK-MEL-28 melanoma,> 100 µM
same,GI50,A498 renal,0.662 µM
same,TGI,A498 renal,81.7 µM
same,GI50,NCI-H23 lung,2.77 µM
same,TGI,NCI-H23 lung,> 100 µM
same,GI50,COLO 205 colon,0.496 µM
same,TGI,COLO 205 colon,15.6 µM
same,GI50,SK-MEL-5 melanoma,0.492 µM
same,TGI,SK-MEL-5 melanoma,18.2 µM
same,GI50,NCI-H226 lung,1.63 µM
same,TGI,NCI-H226 lung,27.7 µM
same,GI50,SNB-75 CNS,28.3 µM
same,TGI,SNB-75 CNS,> 100 µM
